Results on 2 molecules are retold here after patent US20140057851A1, “Anti-Angiogenic Gene Therapy With Soluble VEGF Receptors -1, -2 and -3 Together With Paclitaxel Prolongs Survival Of Mice With Human Ovarian Carcinoma” (WKD Holding Oy, priority 2012, published 2014).

Series [1] can be described thus: Clinical chemistry: plasma ALT and creatinine. As to conditions: mean ± SEM. From the text:
Plasma samples were collected at 6, 13, 20 and 27 days after the gene transfer and when the mice were sacrificed. Alanine aminotransferase (ALT) and creatinine (Crea) were monitored using routine clinical chemistry assays at Kuopio University Hospital Central Laboratory. Enzyme-linked immunosorbent assays (Quantikine; R&D Systems, Minneapolis, Minn.) were used to detect the presence of human sVEGFRs in plasma samples.
Safety was judged by the assessment of the histological samples of liver, spleen, kidneys and lungs as well as by the analysis of plasma ALT and Crea levels.

In series [2] the test system is intratumoral microvessels of SKOV-3m tumors. The series is described as follows: Microvessel and lymphatic vessel measurements in tumors (CD34, LYVE-1 immunostaining). Format: in vivo, Balb/cA-nu female nude mice. Particulars: result in words. The method, then: Photographs of histological sections were taken and processed using an Olympus AX70 microscope (Olympus Optical, Japan), and analySIS (Soft Imaging System, GmbH, Germany) and PhotoShop (Adobe) softwares. Microvessel density (MVD) and total microvascular area (%) of the tumors (TVA) were measured from CD34-immunostained sections using analySIS software at 100× magnification in a blinded manner (FIG. 3b). Six to ten different fields which represented maximum microvessel density areas were selected from each tumor. Necrotic areas were avoided. In addition, the total number of LYVE-1 positive lymphatic vessels per section was counted. Means±SEM of the measurements are reported.

In series [1] (Day 6 after treatment), `N.N.O=C([O-])C1(C(=O)[O-])CCC1.[Pt+2]` [Carboplatin] gave an ALT of 10.0 ± 1 U/l and a Crea of 14.4 ± 3 um/l. In series [1] (Day 13 after treatment), the ALT amounted to 399 ± 209 U/l and the Crea is given as 4.9 ± 2 um/l.

On to Bevacizumab, for which, in series [2], the “effect on angiogenesis by microvessel measurements” value was “did not have any effect”. For the same molecule, the ALT is 12.9 ± 3 U/l in series [1] (Day 6 after treatment) and 56.3 ± 22 U/l in series [1] (Day 13 after treatment). Moreover, the Crea in series [1] (Day 6 after treatment) came to 7.4 ± 1 um/l; in series [1] (Day 13 after treatment), 12.4 ± 4 um/l.
